Measured values reported in US7456225B1, “Liver protection compounds of the cyclohexenone type from Antrodia camphorata” (Golden Biotechnology Corporation, priority 2007, dated 2008).
Marks after values point to notes of the source that are not given here.

How the values were obtained:
[1] = tested on: CCl4 induced liver injury in rats; assay: Serum indicators of liver function (ALT, AST, cholesterol); type: in vivo, Sprague-Dawley (SD) rats; settings: CCl4-treated rats, 8 weeks
Method: (§1) The animal model was performed with five-week-old Sprague-Dawley (SD) rats purchased from BioLasco Taiwan Co., Ltd. Healthy rats weighing 220-270 g were chosen for experiment after observing for 2 weeks in the laboratory animal room. The rats were randomly divided into 6 groups (12 rats/group): normal (gp. A); control groups including model control (gp. B) and positive control (gp. C, animals receiving silymarin); treatment groups including animals receiving 300 mg/kg of cyclohexenone (gp. D), 1000 mg/kg of cyclohexenone (gp. E), and 3000 mg/kg of cyclohexenone (gp. F), as indicated in Table 1. Only normal group was not poisoned with CCl4. The body weights were recorded to calculate the dosage. […] It helps to remove toxins from liver cells by either neutralizing the toxicity of toxic compounds or competing with the binding sites in liver. It is a potent antioxidant, protects the liver from free radicals. It has been widely studied for treating various types of liver injury in animals and clinical trials. The beneficial effects on liver protection have made silymarin a good medicine for liver diseases and a drug in positive control group for the animal model of liver injury.
(§2) Rats in normal group (group A) were fed with corn oil (Sigma chemical co.) by means of stomach tubes. Carbon tetrachloride (Shimakyu, Osaka, Japan) was administered to groups B to F via stomach tubes twice weekly (every Tuesday and Thursday afternoon) for 8 weeks, at a dose of 2 ml/kg of body weight, diluted with corn oil. Silymarin was prepared with saline in an amount of 200 mg/kg of body weight and was fed to rats of group C via a stomach tube. Cyclohexenone prepared from example 1 was mixed with saline, and fed in the amounts of 300 mg/kg, 1000 mg/kg and 3000 mg/kg of body weight to rats of group D to F via stomach tubes. The total feeding volume was estimated in the ratio of 10 ml/kg of body weight to groups C to F five days a week (every morning) for 8 weeks. The body weights of rats and the amounts of food intake in rats for each group were shown in FIG. 1 and FIG. 2, respectively.
All rats were sacrificed at the end of the 8th week of experiment, blood samples were collected from abdominal aorta for assessing liver biochemical parameters. Five ml of blood were transferred to a tube and centrifuged at 775×g for 15 min. 0.5 ml of serum was analyzed on an Express plus automatic clinical chemistry analyzer (Chiron diagnostics corporation, OH, USA) with commercial kits of ALT (Bayer diagnostics, Cat No. E36941), AST (Bayer diagnostics, Cat No. E37041) and cholesterol (Bayer diagnostics, Cat No. E33940). All values are expressed as mean ±SD, which were evaluated using One-way Analysis of Variance. Those with significant differences were further tested with the Least Significant Difference Test (LSD) or Student t-test to compare cyclohexenone treatment groups and normal groups, positive control and model groups. P<0.05 was selected as criterion for statistical significance in all cases.

[2] = tested on: CCl4 induced liver injury in rats; assay: Histological evaluation of liver injury (H&E, Jonker et al. 0-4 scale); type: in vivo, Sprague-Dawley (SD) rats; settings: for Liver injury score: 0-4 scale, CCl4-treated rats, 8 weeks; for Liver injury +, counts of pathological rats: level 1 = +, slight; for Liver injury ++, counts of pathological rats: level 2 = ++, mild; for Liver injury +++, counts of pathological rats: level 3 = +++, moderate; for Liver injury ++++, counts of pathological rats: level 4 = ++++, remarkable
Method: as §1, §2
The pathological changes of the liver surface were examined with naked eyes when the liver was taken out from rats, and then tissue sections were made. Half of each liver lobe was stored at −80° C. for antioxidant enzyme assay to follow up. The rest of liver tissues were fixed in 10% formalin for one week, embedded in paraffin cut into 2 μm sections, and stained with Hematoxyline-eosin (H&E) to visualize the lipid deposition, inflammation, cell necrosis and fibrosis, or stained with Masson's trichromic solution to visualize extracellular matrix and collagen fibers for liver fibrosis development. The pathological changes of liver injury were evaluated under light microscope (Opticphot-2, Nikon, Tokyo, Japan) after stained with the abovementioned solution.
Assessment of pathologic score in the chronic liver damage, the extent of inflammation, vacuolar degeneration, liver cell necrosis and bile duct proliferation were graded semi-quantitatively on a “0” to “4” scale (level 0=−, none, level 1=+, slight, level 2=++, mild, level 3=+++, moderate, and level 4=++++, remarkable, according to Jonker et al. (Jonker, A. M., Dijkhuis, F. W., Boes, A., Hardonk, M. J. and Grond J. 1992. Immunohistochemical study of extracellular matrix in acute galactosamine hepatitis in rats. Hepatology. 15(3):423-31).

[3] = cyclohexenone 1000 mg/kg, listed as cyclohexenone

Structure (SMILES): COC1=C(OC)C(O)C(C/C=C(\C)CC/C=C(\C)CCC=C(C)C)C(C)C1=O (stereo not shown) [Cyclohexenone from Antrodia camphorata, 4-hydroxy-2,3-dimethoxy-6-methyl-5(3,7,11-trimethyl-dodeca-2,6,10-trienyl)-cyclohex-2-enone]
- ALT ([1]; cyclohexenone 300 mg/kg): 226.6 ± 138.7 a U/L
- AST ([1]; cyclohexenone 300 mg/kg): 323.4 ± 189.0 U/L
- Cholesterol ([1]; cyclohexenone 300 mg/kg): 63.7 ± 15.1 mg/dL
- ALT ([1]; cyclohexenone 1000 mg/kg): 181.7 ± 78.4 a U/L
- AST ([1]; cyclohexenone 1000 mg/kg): 283.2 ± 144.2 U/L
- Cholesterol ([1]; cyclohexenone 1000 mg/kg): 69.6 ± 14.8 mg/dL
- ALT [1, 3]: 181.7±78.4 U/L
- AST [1, 3]: 283.2±144.2 U/L
- ALT ([1]; cyclohexenone 3000 mg/kg): 206.0 ± 98.4 a U/L
- AST ([1]; cyclohexenone 3000 mg/kg): 311.7 ± 99.6 U/L
- Cholesterol ([1]; cyclohexenone 3000 mg/kg): 62.1 ± 16.2 mg/dL
- Liver injury score ([2]; cyclohexenone 300 mg/kg): 1.8*^a
- Liver injury score ([2]; cyclohexenone 300 mg/kg, listed as cyclohexenone from Antrodia camphorata): 1.8
- Liver injury score ([2]; cyclohexenone 1000 mg/kg): 2.0*^a
- Liver injury score ([2]; cyclohexenone 1000 mg/kg, listed as cyclohexenone from Antrodia camphorata): 2.0
- Liver injury score ([2]; cyclohexenone 3000 mg/kg): 2.3*^a
- effects in liver injury and liver fibrosis compared with silymarin ([2]; CCl4 treated rats fed with different amount of cyclohexenone (300, 1000, 3000 mg/kg)): better effects than silymarin
- Liver injury +, counts of pathological rats ([2]; cyclohexenone 300 mg/kg): 5
- Liver injury +, counts of pathological rats ([2]; cyclohexenone 1000 mg/kg): 3
- Liver injury +, counts of pathological rats ([2]; cyclohexenone 3000 mg/kg): 2
- Liver injury ++, counts of pathological rats ([2]; cyclohexenone 300 mg/kg): 6
- Liver injury ++, counts of pathological rats ([2]; cyclohexenone 1000 mg/kg): 6
- Liver injury ++, counts of pathological rats ([2]; cyclohexenone 3000 mg/kg): 6
- Liver injury +++, counts of pathological rats ([2]; cyclohexenone 1000 mg/kg): 1
- Liver injury +++, counts of pathological rats ([2]; cyclohexenone 3000 mg/kg): 1
- Liver injury ++++, counts of pathological rats ([2]; cyclohexenone 300 mg/kg): 1
- Liver injury ++++, counts of pathological rats ([2]; cyclohexenone 1000 mg/kg): 1
- Liver injury ++++, counts of pathological rats ([2]; cyclohexenone 3000 mg/kg): 2
